Converted amounts (≈) assume the structure as drawn.
Columns and labels:
Test in all cases: In vitro antifungal activity, microbroth dilution MIC
Type in all cases: cell-based
[1] = system: Candida albicans A. 10231; settings: 4 to 48 hours; for Minimal inhibitory concentration(MIC), C. albicans A. 10231: RPMI-1640, 35° C., no growth observed; for Minimal inhibitory concentration (MIC): C. albicans A. 10231, RPMI-1640, 35° C.
In short: (§1)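 Broth microdilution adapted from NCCLS M27, in RPMI-1640 with 0.165 M MOPS, pH 7.0. Yeast or mould inoculum at 2×10^3 CFU/ml was mixed 1:1 with DMSO-derived compound solutions (200 to 0.10 μg/ml before mixing) and incubated at 35 °C for 4 to 48 h. MIC was the concentration showing no growth.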

[2] = system: Candida albicans C1-2; settings: 4 to 48 hours; for Minimal inhibitory concentration(MIC), C. albicans C1-2: RPMI-1640, 35° C., no growth observed; for Minimal inhibitory concentration (MIC): C. albicans C1-2, RPMI-1640, 35° C.
In short: as §1

[3] = system: Candida albicans IFO. 1385; settings: 4 to 48 hours; for Minimal inhibitory concentration(MIC), C. albicans IFO. 1385: RPMI-1640, 35° C., no growth observed; for Minimal inhibitory concentration (MIC): C. albicans IFO. 1385, RPMI-1640, 35° C.
In short: as §1

[4] = system: Candida tropicalis A. 13803; settings: 4 to 48 hours; for Minimal inhibitory concentration(MIC), C. tropicalis A. 13803: RPMI-1640, 35° C., no growth observed; for Minimal inhibitory concentration (MIC): C. tropicalis A. 13803, RPMI-1640, 35° C.
In short: as §1

[5] = system: Torulopsis glabrata B. 16205; settings: 4 to 48 hours; for Minimal inhibitory concentration(MIC), T. glabrata B. 16205: RPMI-1640, 35° C., no growth observed; for Minimal inhibitory concentration (MIC): T. glabrata B. 16205, RPMI-1640, 35° C.
In short: as §1

[6] = system: Aspergillus niger A. 16404; settings: for Minimal inhibitory concentration(MIC), A. niger A. 16404: RPMI-1640, 35° C., no growth observed; for Minimal inhibitory concentration (MIC): A. niger A. 16404, RPMI-1640, 35° C.
In short: as §1

[7] = system: Trichophyton mentagrophytes A. 9129; settings: for Minimal inhibitory concentration(MIC), T. mentagrophytes A. 9129: RPMI-1640, 35° C., no growth observed; for Minimal inhibitory concentration (MIC): T. mentagrophytes A. 9129, RPMI-1640, 35° C.
In short: as §1

[8] = system: Candida pseudotropicalis K. 11658; settings: 4 to 48 hours; for Minimal inhibitory concentration(MIC), C. pseudotropicalis K. 11658: RPMI-1640, 35° C., no growth observed; for Minimal inhibitory concentration (MIC): C. pseudotropicalis K. 11658, RPMI-1640, 35° C.
In short: as §1

[9] = system: Cryptococcus neoformans B. 42419; settings: 4 to 48 hours; for Minimal inhibitory concentration(MIC), Cry. neoformans B. 42419: RPMI-1640, 35° C., no growth observed; for Minimal inhibitory concentration (MIC): Cry. neoformans B. 42419, RPMI-1640, 35° C.
In short: as §1

[10] = system: Aspergillus furnigatus B. 19119; settings: for Minimal inhibitory concentration(MIC), A furnigatus B. 19119: RPMI-1640, 35° C., no growth observed; for Minimal inhibitory concentration (MIC): A furnigatus B. 19119, RPMI-1640, 35° C.
In short: as §1

[11] = system: Candida parapsitosis A. 7330; settings: 4 to 48 hours; for Minimal inhibitory concentration(MIC), C. parapsitosis A. 7330: RPMI-1640, 35° C., no growth observed; for Minimal inhibitory concentration (MIC): C. parapsitosis A. 7330, RPMI-1640, 35° C.
In short: as §1

[12] = system: Cryptococcus neoformans IFM. 40092; settings: for Minimal inhibitory concentration(MIC), Cry. neoformans IFM. 40092: RPMI-1640, 35° C., no growth observed; for Minimal inhibitory concentration (MIC): Cry. neoformans IFM. 40092, RPMI-1640, 35° C.
In short: as §1

[13] = system: Cryptococcus neoformans A. 34144; settings: for Minimal inhibitory concentration(MIC), Cry. neoformans A. 34144: RPMI-1640, 35° C., no growth observed; for Minimal inhibitory concentration (MIC): Cry. neoformans A. 34144, RPMI-1640, 35° C.
In short: as §1

[14] = system: Candida krusei K. 11655; settings: 4 to 48 hours; for Minimal inhibitory concentration(MIC), C. krusei K. 11655: RPMI-1640, 35° C., no growth observed; for Minimal inhibitory concentration (MIC): C. krusei K. 11655, RPMI-1640, 35° C.
In short: as §1

[15] = system: Trichophyton mentagrophytes B. 32663; settings: for Minimal inhibitory concentration(MIC), T. mentagrophytes B. 32663: RPMI-1640, 35° C., no growth observed; for Minimal inhibitory concentration (MIC): T. mentagrophytes B. 32663, RPMI-1640, 35° C.
In short: as §1

Minimal inhibitory concentration(MIC), C. albicans A. 10231 [1] [µg/mL] | Minimal inhibitory concentration(MIC), C. albicans C1-2 [2] [µg/mL] | Minimal inhibitory concentration(MIC), C. albicans IFO. 1385 [3] [µg/mL] | Minimal inhibitory concentration(MIC), C. tropicalis A. 13803 [4] [µg/mL] | Minimal inhibitory concentration(MIC), T. glabrata B. 16205 [5] [µg/mL] | Minimal inhibitory concentration(MIC), C. pseudotropicalis K. 11658 [8] [µg/mL] | Minimal inhibitory concentration(MIC), Cry. neoformans B. 42419 [9] [µg/mL] | Minimal inhibitory concentration(MIC), C. parapsitosis A. 7330 [11] [µg/mL] | Minimal inhibitory concentration(MIC), C. krusei K. 11655 [14] [µg/mL] | Compound | Minimal inhibitory concentration (MIC) [1] [µg/mL] | Minimal inhibitory concentration (MIC) [2] [µg/mL] | Minimal inhibitory concentration (MIC) [3] [µg/mL] | Minimal inhibitory concentration (MIC) [4] [µg/mL] | Minimal inhibitory concentration (MIC) [5] [µg/mL] | Minimal inhibitory concentration (MIC) ([6]; 4 to 48 hours) [µg/mL] | Minimal inhibitory concentration (MIC) ([7]; 4 to 48 hours) | Minimal inhibitory concentration (MIC) [8] [µg/mL] | Minimal inhibitory concentration (MIC) [9] [µg/mL] | Minimal inhibitory concentration (MIC) ([10]; 4 to 48 hours) [µg/mL] | Minimal inhibitory concentration (MIC) [11] [µg/mL] | other results
>100 | >100 | 0.39 | >100 | 100 | 6.25 | 0.39 | 3.13 | 1.56 | COc1cccc(C(=C(F)N2CCN(c3ccc(OCC4COC(Cn5ccnc5)(c5ccc(F)cc5F)O4)cc3)CC2)C(F)(F)F)c1 (mixture of isomers) [Ex. 143] | – | – | – | – | – | – | – | – | – | – | – | Minimal inhibitory concentration(MIC), A. niger A. 16404 [6]: >100 µg/mL; Minimal inhibitory concentration(MIC), T. mentagrophytes A. 9129 [7]: 6.25 µg/mL; Minimal inhibitory concentration(MIC), A furnigatus B. 19119 [10]: 100 µg/mL; Minimal inhibitory concentration(MIC), Cry. neoformans IFM. 40092 [12]: 0.78 µg/mL; Minimal inhibitory concentration(MIC), Cry. neoformans A. 34144 [13]: 3.13 µg/mL; Minimal inhibitory concentration(MIC), T. mentagrophytes B. 32663 [15]: 0.78 µg/mL
>100 | >100 | 1.56 | >100 | >100 | 1.56 | 0.78 | 1.56 | 1.56 | FC(=C(c1ccc(F)cc1)C(F)(F)F)N1CCN(c2ccc(OCC3COC(Cn4ccnc4)(c4ccc(Cl)cc4Cl)O3)cc2)CC1 (mixture of isomers) [Ex. 135] | – | – | – | – | – | – | – | – | – | – | – | Minimal inhibitory concentration(MIC), A. niger A. 16404 ([6]; 4 to 48 hours): >100 µg/mL; Minimal inhibitory concentration(MIC), T. mentagrophytes A. 9129 ([7]; 4 to 48 hours): 3.13 µg/mL; Minimal inhibitory concentration(MIC), A furnigatus B. 19119 ([10]; 4 to 48 hours): >100 µg/mL; Minimal inhibitory concentration(MIC), Cry. neoformans IFM. 40092 ([12]; 4 to 48 hours): 0.20 µg/mL; Minimal inhibitory concentration(MIC), Cry. neoformans A. 34144 ([13]; 4 to 48 hours): 0.39 µg/mL; Minimal inhibitory concentration(MIC), T. mentagrophytes B. 32663 ([15]; 4 to 48 hours): 1.56 µg/mL
– | – | – | – | – | – | – | – | – | FC(=Cc1ccccc1)OC[C@H]1CO[C@](Cn2ccnc2)(c2ccc(Cl)cc2Cl)O1 (relative stereo) [Example 1, (E&Z) 1-[cis-2-(2,4-dichlorophenyl)-2-(1H-1-imidazolylmethyl)-1,3-dioxolan-4-ylmethoxy]-1-fluoro-2-phenyl-1-ethene] | 25.0 (≈ 55.6 µM) | 25.0 (≈ 55.6 µM) | 3.13 (≈ 6.97 µM) | 50.0 (≈ 111 µM) | 25.0 (≈ 55.6 µM) | 1.56 (≈ 3.47 µM) | ≦0.10 μg/ml | 6.25 (≈ 13.9 µM) | 0.39 (≈ 0.868 µM) | 1.56 (≈ 3.47 µM) | 6.25 (≈ 13.9 µM) | Minimal inhibitory concentration (MIC) ([12]; 4 to 48 hours): 0.20 µg/mL (≈ 0.445 µM); Minimal inhibitory concentration (MIC) ([13]; 4 to 48 hours): 0.39 µg/mL (≈ 0.868 µM); Minimal inhibitory concentration (MIC) [14]: 6.25 µg/mL (≈ 13.9 µM); Minimal inhibitory concentration (MIC) ([15]; 4 to 48 hours): 0.20 µg/mL (≈ 0.445 µM)
– | – | – | – | – | – | – | – | – | FC(OCC1COC(Cn2ccnc2)(c2ccc(F)cc2F)O1)=C(c1ccc(F)cc1)C(F)(F)F (mixture of isomers) [Ex. 66] | 12.5 | 12.5 | 0.39 | 100 | 6.25 | >100 | 6.25 µg/mL | 50.0 | 0.39 | 6.25 | >100 | Minimal inhibitory concentration (MIC) ([12]; 4 to 48 hours): ≦0.10 μg/ml; Minimal inhibitory concentration (MIC) ([13]; 4 to 48 hours): 0.78 µg/mL; Minimal inhibitory concentration (MIC) [14]: 100 µg/mL; Minimal inhibitory concentration (MIC) ([15]; 4 to 48 hours): 3.13 µg/mL

— US6376497B1, “Antifungal azole derivatives having a fluorinated vinyl group and process for preparing same” (Korea Research Institute of Chemical Technology, priority 1999, dated 2002)
